Experimental data: ChEMBL document CHEMBL1909046, “DrugMatrix in vitro pharmacology data”

What was measured:
Cytochrome P450 1A2 = biological target: T1, Cytochrome P450 1A2 (Homo sapiens, UniProt P05177); conditions: bti-tn-5b1-4; also: in other assays of this panel Not Active means under 50% inhibition at 10 µM
T1 sequence (P05177 whole entry): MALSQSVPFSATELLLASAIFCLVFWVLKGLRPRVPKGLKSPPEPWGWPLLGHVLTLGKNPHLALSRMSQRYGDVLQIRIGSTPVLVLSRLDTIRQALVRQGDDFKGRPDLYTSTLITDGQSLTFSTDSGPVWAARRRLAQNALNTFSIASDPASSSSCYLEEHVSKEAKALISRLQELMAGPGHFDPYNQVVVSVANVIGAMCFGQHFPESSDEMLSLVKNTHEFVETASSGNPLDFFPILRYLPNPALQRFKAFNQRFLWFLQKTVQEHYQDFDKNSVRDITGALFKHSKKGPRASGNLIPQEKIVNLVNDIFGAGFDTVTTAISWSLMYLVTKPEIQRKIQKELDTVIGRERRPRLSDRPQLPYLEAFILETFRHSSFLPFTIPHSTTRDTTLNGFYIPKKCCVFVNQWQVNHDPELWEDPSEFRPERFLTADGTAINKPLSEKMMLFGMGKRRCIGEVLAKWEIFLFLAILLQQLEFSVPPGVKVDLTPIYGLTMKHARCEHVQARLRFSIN

D(3) dopamine receptor = D(3) dopamine receptor (Homo sapiens, UniProt P35462); assay: DRUGMATRIX: Dopamine D3 radioligand binding (ligand: [3H] Spiperone); assay type: cell membranes, CHO, Membrane; conditions: for Ki: read-out: Ki
[1] = biological target: T2, Angiotensin-converting enzyme (Oryctolagus cuniculus, UniProt P12822); assay type: tissue-based, Lung;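 also: enzymatic inhibition of angiotensin-converting enzyme measured with FAPGG as the substrate; in other assays of this panel Not Active means under 50% inhibition at 10 µM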
T2 sequence (P12822 whole entry): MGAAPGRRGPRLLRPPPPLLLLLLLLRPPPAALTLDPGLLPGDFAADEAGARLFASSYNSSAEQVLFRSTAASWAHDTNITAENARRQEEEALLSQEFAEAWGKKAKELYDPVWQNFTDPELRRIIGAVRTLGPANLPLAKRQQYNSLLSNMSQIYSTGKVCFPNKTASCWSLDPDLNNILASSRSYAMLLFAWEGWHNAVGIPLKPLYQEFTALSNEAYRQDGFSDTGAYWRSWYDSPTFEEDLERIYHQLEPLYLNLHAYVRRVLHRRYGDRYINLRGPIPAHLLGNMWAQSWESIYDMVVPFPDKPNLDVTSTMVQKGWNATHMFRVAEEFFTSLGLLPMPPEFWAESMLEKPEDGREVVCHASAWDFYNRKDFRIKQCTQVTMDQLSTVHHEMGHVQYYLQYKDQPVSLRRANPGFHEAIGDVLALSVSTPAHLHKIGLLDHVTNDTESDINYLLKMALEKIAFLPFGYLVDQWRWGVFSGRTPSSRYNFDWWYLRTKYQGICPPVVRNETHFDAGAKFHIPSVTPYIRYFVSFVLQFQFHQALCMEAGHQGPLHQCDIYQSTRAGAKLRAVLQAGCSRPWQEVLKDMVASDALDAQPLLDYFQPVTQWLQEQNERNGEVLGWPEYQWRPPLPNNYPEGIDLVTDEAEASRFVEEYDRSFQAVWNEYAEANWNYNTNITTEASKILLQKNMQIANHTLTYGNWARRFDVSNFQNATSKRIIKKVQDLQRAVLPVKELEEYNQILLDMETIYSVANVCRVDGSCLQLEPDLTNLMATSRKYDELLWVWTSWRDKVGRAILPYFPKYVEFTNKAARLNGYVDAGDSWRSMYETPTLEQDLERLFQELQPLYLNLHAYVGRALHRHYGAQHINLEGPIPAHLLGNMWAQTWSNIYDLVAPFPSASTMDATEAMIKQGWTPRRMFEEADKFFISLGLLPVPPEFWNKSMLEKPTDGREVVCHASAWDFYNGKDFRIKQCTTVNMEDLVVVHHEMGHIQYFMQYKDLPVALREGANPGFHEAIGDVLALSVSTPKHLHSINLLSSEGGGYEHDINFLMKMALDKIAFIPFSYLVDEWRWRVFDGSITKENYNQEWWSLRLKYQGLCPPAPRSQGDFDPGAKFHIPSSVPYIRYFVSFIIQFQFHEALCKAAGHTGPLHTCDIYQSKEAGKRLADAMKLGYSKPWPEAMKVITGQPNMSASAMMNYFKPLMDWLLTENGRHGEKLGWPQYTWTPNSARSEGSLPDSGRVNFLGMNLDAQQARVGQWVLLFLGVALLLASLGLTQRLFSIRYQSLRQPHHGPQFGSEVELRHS

[2] = biological target: T3, Alpha-1D adrenergic receptor (Homo sapiens, UniProt P25100); assay type: cell membranes, HEK293, Membrane; conditions: for Ki: read-out: Ki; as to all read-outs here: in other assays of this panel Not Active means under 50% inhibition at 10 µM
T3 sequence (P25100 whole entry): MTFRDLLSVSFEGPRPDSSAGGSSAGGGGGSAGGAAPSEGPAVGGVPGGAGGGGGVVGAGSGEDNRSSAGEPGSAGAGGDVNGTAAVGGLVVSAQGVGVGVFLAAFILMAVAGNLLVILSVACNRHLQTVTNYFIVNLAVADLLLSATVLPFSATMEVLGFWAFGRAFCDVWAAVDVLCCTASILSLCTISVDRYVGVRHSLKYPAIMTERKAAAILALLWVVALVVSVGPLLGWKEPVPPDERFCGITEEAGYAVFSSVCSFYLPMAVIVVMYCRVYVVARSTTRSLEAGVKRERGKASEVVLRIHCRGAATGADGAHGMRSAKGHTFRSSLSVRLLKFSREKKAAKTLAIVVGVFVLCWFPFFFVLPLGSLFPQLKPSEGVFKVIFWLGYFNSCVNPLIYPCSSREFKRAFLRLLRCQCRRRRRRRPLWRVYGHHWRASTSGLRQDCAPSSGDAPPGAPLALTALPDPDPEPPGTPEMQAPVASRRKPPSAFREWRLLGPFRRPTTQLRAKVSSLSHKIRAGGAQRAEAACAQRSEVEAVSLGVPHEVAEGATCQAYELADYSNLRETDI

[3] = biological target: Delta-type opioid receptor (Homo sapiens, UniProt P41143); assay type: cell membranes, HEK293, Membrane; conditions: hek293; also: in other assays of this panel Not Active means under 50% inhibition at 10 µM
[4] = DRUGMATRIX: Tumor Necrosis Factor (TNF), Non-Selective radioligand binding (ligand: [125I] TNF-alpha); assay type: cell membranes, Membrane; conditions: u-937; Not Active = under 50% inhibition at 10 µM

Sequence of Delta-type opioid receptor (P41143 whole entry): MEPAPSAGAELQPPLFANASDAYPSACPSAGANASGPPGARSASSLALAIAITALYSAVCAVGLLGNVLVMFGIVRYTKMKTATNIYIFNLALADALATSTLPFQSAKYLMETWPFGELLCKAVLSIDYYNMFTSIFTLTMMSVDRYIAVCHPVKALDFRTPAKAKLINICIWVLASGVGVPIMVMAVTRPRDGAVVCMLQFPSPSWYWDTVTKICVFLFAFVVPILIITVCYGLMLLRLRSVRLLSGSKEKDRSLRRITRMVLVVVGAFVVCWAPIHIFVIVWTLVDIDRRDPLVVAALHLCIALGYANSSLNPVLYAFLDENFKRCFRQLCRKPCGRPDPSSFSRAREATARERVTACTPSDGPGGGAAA
Sequence of D(3) dopamine receptor (P35462 whole entry): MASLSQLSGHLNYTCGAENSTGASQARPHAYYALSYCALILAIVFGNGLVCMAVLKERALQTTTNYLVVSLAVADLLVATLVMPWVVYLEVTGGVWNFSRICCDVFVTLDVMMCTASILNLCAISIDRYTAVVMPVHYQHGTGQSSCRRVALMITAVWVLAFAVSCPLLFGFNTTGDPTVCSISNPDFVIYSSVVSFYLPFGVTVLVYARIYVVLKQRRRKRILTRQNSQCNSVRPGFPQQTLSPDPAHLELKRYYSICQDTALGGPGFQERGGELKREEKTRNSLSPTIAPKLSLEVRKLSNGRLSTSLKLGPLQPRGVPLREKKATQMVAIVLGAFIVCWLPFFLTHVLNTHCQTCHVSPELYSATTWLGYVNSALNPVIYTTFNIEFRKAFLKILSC

Row | SMILES | IC50 (Cytochrome P450 1A2) | Ki (Cytochrome P450 1A2) | IC50 (D(3) dopamine receptor; cho) | IC50 [1] | IC50 ([2]; hek293) | IC50 [3] | IC50 [4] | Ki [4] | IC50 (D(3) dopamine receptor; read-out: IC50) | Ki (D(3) dopamine receptor) | IC50 ([2]; read-out: IC50) | Ki [2]
1 | CCCCC1=NC2(CCCC2)C(=O)N1Cc1ccc(-c2ccccc2-c2nnn[nH]2)cc1 [IRBESARTAN] | Not Active | Not Active | Not Active | Not Active | Not Active | Not Active | Not Active | Not Active | – | – | – | –
2 | CN1CCC(=C2c3ccccc3CC(=O)c3sccc32)CC1 [KETOTIFEN] | Not Active | Not Active | – | Not Active | – | Not Active | Not Active | Not Active | 1960 nM | 667 nM | 3730 nM | 1830 nM
3 | C[N+](C)(C)C[C@H](O)CC(=O)[O-] [LEVOCARNITINE] | Not Active | Not Active | Not Active | Not Active | Not Active | Not Active | Not Active | Not Active | – | – | – | –
4 | C[C@H]1COc2c(N3CCN(C)CC3)c(F)cc3c(=O)c(C(=O)O)cn1c23.C[C@H]1COc2c(N3CCN(C)CC3)c(F)cc3c(=O)c(C(=O)O)cn1c23.O [LEVOFLOXACIN] | Not Active | Not Active | Not Active | Not Active | Not Active | Not Active | Not Active | Not Active | – | – | – | –
5 | CCn1cc(C(=O)O)c(=O)c2cc(F)c(N3CCNC(C)C3)c(F)c21 (centres undefined) [LOMEFLOXACIN] | Not Active | Not Active | Not Active | Not Active | Not Active | Not Active | Not Active | Not Active | – | – | – | –
6 | CN1CCCC(CN2c3ccccc3Sc3ccccc32)C1 (centres undefined) [MEPAZINE] | Not Active | Not Active | – | Not Active | – | Not Active | Not Active | Not Active | 2010 nM | 681 nM | 137 nM | 67 nM
7 | Cc1cccc(C)c1NC(=O)C1CCCCN1C (centres undefined) [MEPIVACAINE] | Not Active | Not Active | Not Active | Not Active | Not Active | Not Active | Not Active | Not Active | – | – | – | –
8 | C[C@]12CC[C@H]3[C@@H](CCC4=CC(=O)CC[C@@H]43)[C@@H]1CC[C@@H]2O [NANDROLONE] | Not Active | Not Active | Not Active | Not Active | Not Active | Not Active | Not Active | Not Active | – | – | – | –
9 | CN(C)C(=O)Oc1cccc([N+](C)(C)C)c1.[Br-] [NEOSTIGMINE BROMIDE] | Not Active | Not Active | Not Active | Not Active | Not Active | Not Active | Not Active | Not Active | – | – | – | –
10 | NC(=O)c1cccnc1 [NIACINAMIDE] | Not Active | Not Active | Not Active | Not Active | Not Active | Not Active | Not Active | Not Active | – | – | – | –
11 | CS(=O)(=O)Nc1ccc([N+](=O)[O-])cc1Oc1ccccc1 [NIMESULIDE] | Not Active | Not Active | Not Active | Not Active | Not Active | Not Active | Not Active | Not Active | – | – | – | –
12 | CN1C(=O)CN=C(c2ccccc2)c2cc([N+](=O)[O-])ccc21 [NIMETAZEPAM] | Not Active | Not Active | Not Active | Not Active | Not Active | Not Active | Not Active | Not Active | – | – | – | –
13 | COc1ccc2c(c1OC)C(=O)O[C@@H]2[C@H]1c2c(cc3c(c2OC)OCO3)CCN1C [NOSCAPINE] | Not Active | Not Active | Not Active | Not Active | Not Active | Not Active | Not Active | Not Active | – | – | – | –
14 | NC(=O)N1c2ccccc2CC(=O)c2ccccc21 [OXCARBAZEPINE] | Not Active | Not Active | Not Active | Not Active | Not Active | Not Active | Not Active | Not Active | – | – | – | –
15 | COc1ccnc(C[S+]([O-])c2nc3ccc(OC(F)F)cc3[nH]2)c1OC (centres undefined) [PANTOPRAZOLE] | Not Active | Not Active | Not Active | Not Active | Not Active | Not Active | Not Active | Not Active | – | – | – | –
16 | NNCCc1ccccc1 [PHENELZINE] | Not Active | Not Active | Not Active | Not Active | Not Active | Not Active | Not Active | Not Active | – | – | – | –
17 | CCc1ccc(CCOc2ccc(CC3SC(=O)NC3=O)cc2)nc1 (centres undefined) [PIOGLITAZONE] | Not Active | Not Active | Not Active | Not Active | Not Active | Not Active | Not Active | Not Active | – | – | – | –
18 | CCCNC(C)C(=O)Nc1ccccc1C (centres undefined) [PRILOCAINE] | Not Active | Not Active | Not Active | Not Active | Not Active | Not Active | Not Active | Not Active | – | – | – | –
19 | CCN(CC)CCNC(=O)c1ccc(N)cc1 [PROCAINAMIDE] | Not Active | Not Active | Not Active | Not Active | Not Active | Not Active | Not Active | Not Active | – | – | – | –
20 | CCN(CC)CCCC(C)Nc1c2ccc(Cl)cc2nc2ccc(OC)cc12 (centres undefined) [QUINACRINE] | Not Active | Not Active | – | Not Active | – | Not Active | Not Active | Not Active | 1320 nM | 448 nM | 2070 nM | 1020 nM
21 | C[C@]12C=CC(=O)C=C1CC[C@H]1[C@@H]3C[C@@H](O)[C@](O)(C(=O)CO)[C@@]3(C)C[C@H](O)[C@@]12F [TRIAMCINOLONE] | Not Active | Not Active | Not Active | Not Active | Not Active | Not Active | Not Active | Not Active | – | – | – | –
